Measured values as given in ChEMBL document CHEMBL1201862, “PubChem BioAssay data set” (2004).
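Briefly, cells in 96-well plates were exposed to five compound concentrations for 48 h, and endpoints were estimated by linear interpolation. At the GI50, growth is halved.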 Calls of active or inactive are those of the source. Cut-off read from the data, not from the text of the source: active = GI50 up to about 1.1 µM and inactive = higher.

Experiments:
Experiment in all cases: NCI anticancer screen, dose series, 48 h
SK-OV-3 = test system: SK-OV-3
KM12 = test system: KM12
OVCAR-4 = test system: OVCAR-4
RPMI-8226 = test system: RPMI-8226
OVCAR-5 = test system: OVCAR-5
HT-29 = test system: HT-29
NCI-H460 = test system: NCI-H460
SF-295 = test system: SF-295
SNB-19 = test system: SNB-19
LOX IMVI = test system: LOX IMVI
UACC-62 = test system: UACC-62
A498 = test system: A498
Malme-3M = test system: Malme-3M
MOLT-4 = test system: MOLT-4
UO-31 = test system: UO-31
SK-MEL-28 = test system: SK-MEL-28
CAKI-1 = test system: CAKI-1
SK-MEL-5 = test system: SK-MEL-5
SW-620 = test system: SW-620
SNB-75 = test system: SNB-75

SMILES | GI50 (SK-OV-3) | GI50 (KM12) | GI50 (OVCAR-4) | GI50 (RPMI-8226) | GI50 (OVCAR-5) | GI50 (HT-29) | GI50 (NCI-H460) | GI50 (SF-295) | GI50 (SNB-19) | GI50 (LOX IMVI) | GI50 (UACC-62) | GI50 (A498) | GI50 (Malme-3M) | GI50 (MOLT-4) | GI50 (UO-31) | GI50 (SK-MEL-28) | GI50 (CAKI-1) | GI50 (SK-MEL-5) | GI50 (SW-620) | GI50 (SNB-75)
Cc1ccc(C2(O)c3ccccc3C(=O)N(C)C2(O)c2ccc(C)cc2)cc1 (stereo unspecified) | > 100 µM (inactive) | 29.9 µM (inactive) | 18.2 µM (inactive) | > 100 µM (inactive) | > 100 µM (inactive) | 46.8 µM (inactive) | 22.6 µM (inactive) | 38.1 µM (inactive) | 21.5 µM (inactive) | 25.5 µM (inactive) | > 100 µM (inactive) | > 100 µM (inactive) | > 100 µM (inactive) | 12.8 µM (inactive) | 57.8 µM (inactive) | > 100 µM (inactive) | 68.1 µM (inactive) | 33.5 µM (inactive) | 34.5 µM (inactive) | 
Clc1ccc(OC2CCO2)cc1Cl (stereo unspecified) | > 100 µM (inactive) | 76.6 µM (inactive) | 60 µM (inactive) | 43.5 µM (inactive) | 83.2 µM (inactive) | 85.5 µM (inactive) | 47.2 µM (inactive) | > 100 µM (inactive) | > 100 µM (inactive) |  | 72.6 µM (inactive) | 38 µM (inactive) | > 100 µM (inactive) | 35.3 µM (inactive) | 62.4 µM (inactive) | > 100 µM (inactive) | 53.1 µM (inactive) | 62.1 µM (inactive) | 17.9 µM (inactive) | > 100 µM (inactive)
Cn1c(=O)c2[nH]c(/N=N/N3CCN(CCO)CC3)nc2n(C)c1=O | > 100 µM (inactive) | > 100 µM (inactive) | > 100 µM (inactive) | > 100 µM (inactive) | > 100 µM (inactive) | > 100 µM (inactive) | > 100 µM (inactive) | > 100 µM (inactive) | > 100 µM (inactive) | > 100 µM (inactive) | > 100 µM (inactive) | > 100 µM (inactive) | > 100 µM (inactive) | > 100 µM (inactive) | > 100 µM (inactive) | > 100 µM (inactive) | > 100 µM (inactive) | > 100 µM (inactive) | > 100 µM (inactive) | 
Clc1ccc(CCn2ccc3ccccc32)c(Cl)c1 | > 100 µM (inactive) | > 100 µM (inactive) | > 100 µM (inactive) | > 100 µM (inactive) | > 100 µM (inactive) | > 100 µM (inactive) | > 100 µM (inactive) | > 100 µM (inactive) | > 100 µM (inactive) |  | > 100 µM (inactive) | > 100 µM (inactive) | > 100 µM (inactive) | > 100 µM (inactive) | > 100 µM (inactive) |  | > 100 µM (inactive) | > 100 µM (inactive) | > 100 µM (inactive) | > 100 µM (inactive)
O=C(NC1CCCCC1)NC12CC3CC(CC(F)(C3)C1)C2 | > 100 µM (inactive) | > 100 µM (inactive) |  | > 100 µM (inactive) | > 100 µM (inactive) | > 100 µM (inactive) | > 100 µM (inactive) |  | > 100 µM (inactive) | > 100 µM (inactive) | > 100 µM (inactive) | > 100 µM (inactive) | > 100 µM (inactive) | > 100 µM (inactive) | 55.3 µM (inactive) | > 100 µM (inactive) |  | > 100 µM (inactive) | > 100 µM (inactive) | 40.4 µM (inactive)
CN(c1ccc(C(=O)c2ccc(N(C)S(C)(=O)=O)cc2)cc1)S(C)(=O)=O | > 100 µM (inactive) | > 100 µM (inactive) | > 100 µM (inactive) | > 100 µM (inactive) | > 100 µM (inactive) | > 100 µM (inactive) | > 100 µM (inactive) | 78.2 µM (inactive) | > 100 µM (inactive) |  | > 100 µM (inactive) | > 100 µM (inactive) | > 100 µM (inactive) | 47 µM (inactive) | 75.7 µM (inactive) | 54.6 µM (inactive) | > 100 µM (inactive) | 27.9 µM (inactive) | > 100 µM (inactive) | 83.6 µM (inactive)
c1ccc(C2N3CCCCC3[C@@H]3c4[nH]c5ccccc5c4CCN23)cc1 (stereo partly specified) | > 100 µM (inactive) |  | 29.5 µM (inactive) | 36.2 µM (inactive) | > 100 µM (inactive) | 17.5 µM (inactive) | 48.8 µM (inactive) | > 100 µM (inactive) | > 100 µM (inactive) |  | 48.3 µM (inactive) | 27 µM (inactive) | 27 µM (inactive) | 41.2 µM (inactive) | 70 µM (inactive) | 28 µM (inactive) | > 100 µM (inactive) | 67.3 µM (inactive) | 50.4 µM (inactive) | 57.9 µM (inactive)
Cc1c2c(cc3c1[nH]c1ccccc13)C(c1ccc(Cl)cc1)=NCC2 | 2.67 µM (inactive) | 0.274 µM (active) | 0.718 µM (active) | 0.497 µM (active) | 7.78 µM (inactive) | 0.203 µM (active) | 0.267 µM (active) | 0.255 µM (active) | 0.355 µM (active) | 0.424 µM (active) | 0.452 µM (active) | 0.124 µM (active) | 1.83 µM (inactive) | 0.426 µM (active) | 0.644 µM (active) | 1.45 µM (inactive) |  | 0.343 µM (active) | 0.356 µM (active) | 0.217 µM (active)
O=C1c2ccccc2C(=O)c2[nH]c(=O)c(/C=N/Nc3ccc([N+](=O)[O-])cc3)nc21 | 9.73 µM (inactive) | 5.73 µM (inactive) | 18.4 µM (inactive) | > 37 µM (inactive) | 31.6 µM (inactive) | 2.59 µM (inactive) | 2.06 µM (inactive) | 3.32 µM (inactive) | 15.9 µM (inactive) | 3.56 µM (inactive) | 2.09 µM (inactive) | 4.67 µM (inactive) | 1.21 µM (inactive) | 22.9 µM (inactive) | 6.58 µM (inactive) | 5.47 µM (inactive) | 17.3 µM (inactive) | 1.62 µM (inactive) | 12.1 µM (inactive) | 
FC(F)(F)c1ccc(/N=N/N2CCCC2)cc1 | > 100 µM (inactive) | 5.31 µM (inactive) | > 100 µM (inactive) | > 100 µM (inactive) | > 100 µM (inactive) | > 100 µM (inactive) | 63 µM (inactive) | > 100 µM (inactive) | > 100 µM (inactive) | > 100 µM (inactive) | > 100 µM (inactive) | > 100 µM (inactive) | > 100 µM (inactive) | > 100 µM (inactive) | 54.7 µM (inactive) | > 100 µM (inactive) | > 100 µM (inactive) | 42.6 µM (inactive) | > 100 µM (inactive) | 
COc1ccc(C(=O)c2c3cc(OC)c(OC)c(OC)c3cc[n+]2C)cc1 | 38.4 µM (inactive) | 30.4 µM (inactive) |  | 10.2 µM (inactive) | > 100 µM (inactive) | 30.3 µM (inactive) | 31.6 µM (inactive) |  | 31 µM (inactive) |  |  | 36.7 µM (inactive) | 35 µM (inactive) | 20.5 µM (inactive) | 26 µM (inactive) | 28.5 µM (inactive) |  | 17.5 µM (inactive) | 34.4 µM (inactive) | 27.9 µM (inactive)
